Like-named read-outs stand apart in the source and are kept apart here.
How the values were obtained:
[1] = biological target: T1, human A1 adenosine receptor (Homo sapiens, UniProt P30542); assay: radioligand competition, [3H]DPCPX, CHO-A1 membranes; type: binding
T1 construct: gene ADORA1; full-length receptor
T1 sequence (P30542 1-326): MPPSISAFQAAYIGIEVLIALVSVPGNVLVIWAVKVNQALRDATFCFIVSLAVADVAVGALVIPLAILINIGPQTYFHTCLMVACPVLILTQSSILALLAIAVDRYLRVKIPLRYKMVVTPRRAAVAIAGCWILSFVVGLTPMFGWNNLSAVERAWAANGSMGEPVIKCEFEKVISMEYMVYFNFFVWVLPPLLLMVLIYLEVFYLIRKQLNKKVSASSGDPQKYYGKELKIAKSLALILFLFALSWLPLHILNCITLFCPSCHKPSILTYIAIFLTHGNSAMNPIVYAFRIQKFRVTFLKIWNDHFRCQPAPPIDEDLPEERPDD
Source text: radioligand competition, [3H]DPCPX, CHO-A1 membranes on human A1 adenosine receptor

[2] = biological target: T1, human A1 adenosine receptor; assay: as above; type: binding; remark: listed apart in the source
[3] = biological target: T2, human A2B adenosine receptor (Homo sapiens, UniProt P29275); assay: radioligand competition, [3H]DPCPX, HEK-293-A2B membranes; type: binding
T2 construct: gene ADORA2B; full-length receptor; membranes of HEK-293-A2B cells (Euroscreen)
T2 sequence (P29275 1-332): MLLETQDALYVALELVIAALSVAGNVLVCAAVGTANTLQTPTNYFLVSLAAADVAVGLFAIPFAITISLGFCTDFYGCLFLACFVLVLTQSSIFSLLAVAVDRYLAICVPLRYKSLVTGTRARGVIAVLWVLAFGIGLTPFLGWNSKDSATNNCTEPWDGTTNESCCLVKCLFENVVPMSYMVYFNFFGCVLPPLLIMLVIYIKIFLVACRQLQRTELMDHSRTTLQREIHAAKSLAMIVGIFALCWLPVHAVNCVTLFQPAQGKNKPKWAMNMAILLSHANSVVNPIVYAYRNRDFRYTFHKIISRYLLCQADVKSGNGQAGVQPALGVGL
Source text: radioligand competition, [3H]DPCPX, HEK-293-A2B membranes on human A2B adenosine receptor

[4] = biological target: T3, human A2A adenosine receptor (Homo sapiens, UniProt P29274); assay: radioligand competition, [3H]ZM241385, HeLa-A2A membranes; type: binding
T3 construct: gene ADORA2A; full-length receptor; membranes of HeLa-A2A cells
T3 sequence (P29274 whole entry): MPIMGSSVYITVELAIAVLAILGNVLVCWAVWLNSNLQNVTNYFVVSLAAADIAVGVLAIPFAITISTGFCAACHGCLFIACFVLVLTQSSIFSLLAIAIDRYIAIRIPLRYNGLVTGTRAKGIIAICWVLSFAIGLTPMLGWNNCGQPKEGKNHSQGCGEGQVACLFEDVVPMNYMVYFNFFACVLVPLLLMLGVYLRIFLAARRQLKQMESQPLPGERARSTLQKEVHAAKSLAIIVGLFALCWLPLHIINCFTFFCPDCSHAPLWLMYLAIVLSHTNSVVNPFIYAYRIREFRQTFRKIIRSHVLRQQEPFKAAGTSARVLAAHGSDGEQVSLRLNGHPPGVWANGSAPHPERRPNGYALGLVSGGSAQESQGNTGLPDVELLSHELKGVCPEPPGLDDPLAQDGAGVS
Source text: radioligand competition, [3H]ZM241385, HeLa-A2A membranes on human A2A adenosine receptor

[5] = biological target: T4, human A3 adenosine receptor (Homo sapiens, UniProt P0DMS8); assay: radioligand competition, [3H]NECA, HeLa-A3 membranes; type: binding
T4 construct: gene ADORA3; full-length receptor
T4 sequence (P0DMS8 1-318): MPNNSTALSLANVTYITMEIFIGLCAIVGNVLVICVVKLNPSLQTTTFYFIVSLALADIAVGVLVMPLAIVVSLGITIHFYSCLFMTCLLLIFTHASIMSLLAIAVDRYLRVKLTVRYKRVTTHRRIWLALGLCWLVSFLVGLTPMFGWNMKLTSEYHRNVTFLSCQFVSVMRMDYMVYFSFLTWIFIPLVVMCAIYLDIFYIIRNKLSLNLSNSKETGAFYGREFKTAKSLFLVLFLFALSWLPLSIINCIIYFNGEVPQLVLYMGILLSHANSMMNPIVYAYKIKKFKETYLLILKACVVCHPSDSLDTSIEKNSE
Source text: radioligand competition, [3H]NECA, HeLa-A3 membranes on human A3 adenosine receptor

[6] = biological target: T4, human A3 adenosine receptor; assay: cAMP enzyme immunoassay, antagonism of NECA, CHO-A3 cells; type: cell-based; conditions: read-out: Potency (pKB) / A3 (converted)
Source text: cAMP enzyme immunoassay, antagonism of NECA, CHO-A3 cells on human A3 adenosine receptor

[7] = biological target: T1, human A1 adenosine receptor; assay: cAMP enzyme immunoassay, antagonism of NECA, CHO-A1 cells; type: cell-based; conditions: read-out: Potency (pKB) / A1 (converted)
Source text: cAMP enzyme immunoassay, antagonism of NECA, CHO-A1 cells on human A1 adenosine receptor

Compound	Ki ([2]; read-out: A1 (converted)) [nM]	Ki [3] [nM]	Ki [4] [nM]	Ki [5] [nM]	also measured
Cn1cnc2c(N3CCOCC3)nc(-c3ccccc3Cl)nc21 [3a, 4-(2-(2-Chlorophenyl)-9-methyl-9H-purin-6-yl)morpholine]	–	–	–	–	inhibition at 10 µM [1]: 36 ± 1%
COc1ccccc1-c1nc(N2CCOCC2)c2ncn(C)c2n1 [3b, 4-(2-(2-Methoxyphenyl)-9-methyl-9H-purin-6-yl)morpholine]	–	–	–	–	inhibition at 10 µM [1]: 22 ± 1%
Cn1cnc2c(N3CCOCC3)nc(-c3ccccc3O)nc21 [3c, 2-(9-Methyl-6-morpholino-9H-purin-2-yl)phenol]	309	2000	339	–	–
Cn1cnc2c(N3CCOCC3)nc(-c3cccc(Cl)c3)nc21 [3d, 4-(2-(3-Chlorophenyl)-9-methyl-9H-purin-6-yl)morpholine]	158	–	–	–	–
Cn1cnc2c(N3CCOCC3)nc(-c3cccc(O)c3)nc21 [3e, 3-(9-Methyl-6-morpholino-9H-purin-2-yl)phenol]	692	–	–	–	–
Cn1cnc2c(N3CCOCC3)nc(-c3ccc(Cl)cc3)nc21 [3f, 4-(2-(4-Chlorophenyl)-9-methyl-9H-purin-6-yl)morpholine]	–	–	–	–	inhibition at 10 µM [1]: 37 ± 4%
Cn1cnc2c(N3CCOCC3)nc(-c3cccc(O)c3O)nc21 [3g, 3-(9-Methyl-6-morpholino-9H-purin-2-yl)benzene-1,2-diol]	–	–	–	–	inhibition at 10 µM [1]: 33 ± 0.3%
Cn1cnc2c(N3CCOCC3)nc(-c3cc(Cl)ccc3Cl)nc21 [3h, 4-(2-(2,5-Dichlorophenyl)-9-methyl-9H-purin-6-yl)morpholine]	–	–	–	–	inhibition at 10 µM [1]: 41 ± 2%
Cn1cnc2c(N3CCOCC3)nc(-c3cc(O)ccc3O)nc21 [3i, 2-(9-Methyl-6-morpholino-9H-purin-2-yl)benzene-1,4-diol]	437	479	562	–	–
COc1ccc(O)c(-c2nc(N3CCOCC3)c3ncn(C)c3n2)c1 [3j, 4-Methoxy-2-(9-methyl-6-morpholino-9H-purin-2-yl)phenol]	525	1660	1230	–	–
Cn1cnc2c(N3CCOCC3)nc(-c3cc(Cl)ccc3O)nc21 [3k, 4-Chloro-2-(9-methyl-6-morpholino-9H-purin-2-yl)phenol]	123	–	708	–	–
COc1ccc(F)c(-c2nc(N3CCOCC3)c3ncn(C)c3n2)c1 [3l, 4-(2-(2-Fluoro-5-methoxyphenyl)-9-methyl-9H-purin-6-yl)morpholine]	–	–	–	5250	–
Cn1cnc2c(N3CCOCC3)nc(-c3cc(F)ccc3F)nc21 [3m, 4-(2-(2,5-Difluorophenyl)-9-methyl-9H-purin-6-yl)morpholine]	525	–	–	–	–

Second part, led by results:

Ki ([2]; read-out: A1 (converted)) [nM]	Ki [3] [nM]	Ki [4] [nM]	Ki [5] [nM]	Compound	also measured
64.6	138	107	257	Oc1ccccc1-c1nc(N2CCOCC2)c2nc[nH]c2n1 [3n, 2-(6-Morpholino-9H-purin-2-yl)phenol]	–
17.8	75.9	46.8	39.8	Clc1cccc(-c2nc(N3CCOCC3)c3nc[nH]c3n2)c1 [3o, 4-(2-(3-Chlorophenyl)-9H-purin-6-yl)morpholine]	–
32.4	–	550	468	Oc1cccc(-c2nc(N3CCOCC3)c3nc[nH]c3n2)c1 [3p, 3-(6-Morpholino-9H-purin-2-yl)phenol]	–
95.5	–	–	33.9	Clc1ccc(-c2nc(N3CCOCC3)c3nc[nH]c3n2)cc1 [3q, 4-(2-(4-Chlorophenyl)-9H-purin-6-yl)morpholine]	–
–	–	–	70.8	Clc1ccc(-c2nc(N3CCOCC3)c3nc[nH]c3n2)cc1Cl [3r, 4-(2-(3,4-Dichlorophenyl)-9H-purin-6-yl)morpholine]	–
–	–	–	955	FC(F)(F)c1cc(-c2nc(N3CCOCC3)c3nc[nH]c3n2)ccc1Cl [3s, 4-(2-(4-Chloro-3-(trifluoromethyl)phenyl)-9H-purin-6-yl)morpholine]	–
1070	–	–	69.2	Clc1ccc(Cl)c(-c2nc(N3CCOCC3)c3nc[nH]c3n2)c1 [3t, 4-(2-(2,5-Dichlorophenyl)-9H-purin-6-yl)morpholine]	–
89.1	617	–	–	Oc1ccc(Cl)cc1-c1nc(N2CCOCC2)c2nc[nH]c2n1 [3u]	–
–	398	–	14.8	COc1ccc(F)c(-c2nc(N3CCOCC3)c3nc[nH]c3n2)c1 [3v, 4-(2-(2-Fluoro-5-methoxyphenyl)-9H-purin-6-yl)morpholine]	Ki ([2]; read-out: pKi (converted)): > 10000 nM; Kb [6]: 5.75 nM
5.89	36.3	70.8	23.4	Fc1ccc(F)c(-c2nc(N3CCOCC3)c3nc[nH]c3n2)c1 [3x, 4-(2-(2,5-Difluorophenyl)-9H-purin-6-yl)morpholine]	Kb [7]: 5.62 nM

Reference: PMC11173536, “2-Aryladenine Derivatives as a Potent Scaffold for Adenosine Receptor Antagonists: The 6-Morpholino Derivatives” (Molecules, 2024)
